This note sets out measurements from patent US10219516B2, “Molecules having pesticidal utility, and intermediates, compositions, and processes, related thereto” (priority 2015, dated 2019).

Common to all, as to type: in vivo
The test system of assay [1] is Beet Armyworm (Spodoptera exigua, LAPHEG). The assay is described as follows: Bioassay on Beet Armyworm (BAW), 128-well diet tray assay. In outline: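 Test molecule dissolved in acetone-water 90:10 is applied at 50 μg/cm^2 onto artificial diet and allowed to dry. Second instar larvae, one to five per well, are then added, and trays are vented and kept at 25° C. for five to seven days before mortality is scored.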

The subject of assay [2] is Cabbage Looper (Trichoplusia ni, TRIPNI). The assay is described as follows: Bioassay on Cabbage Looper (CL), 128-well diet tray assay. The following applies: Trichoplusia ni. In outline: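 Diet-incorporation-free surface assay: 50 μg/cm^2 compound in acetone-water (90:10), dried on diet; 1–5 2nd-instar larvae/well; 8 wells; vented cover; 25° C., 14:10 L:D, 5–7 d; % mortality averaged over wells.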

Assay [3] has as its system Yellow Fever Mosquito (Aedes aegypti, AEDSAE). The assay is described as follows: Bioassay on Yellow Fever Mosquito (YFM), 96-well plate larval assay. The following applies: for YFM (Biological Results, rating): Species YFM (Yellow Fever Mosquito); for YFM rating: Yellow Fever Mosquito, 96-well plate larval assay. The method in brief:
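Each well was scored for mortality after 3 days at room temperature under a non-evaporative lid. Test molecules came from DMSO masters (4000 ppm stock) diluted with water/acetone 90:10 and dispensed into six replicate plates, which were then infested with roughly 1-day-old larvae in liver-powder water.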

Where [4] appears, read: Species BAW (Beet Armyworm), read-out: BAW (Biological Results, rating).
[5] abbreviates: Species CL (Cabbage Looper), read-out: CL (Biological Results, rating).
Where [6] appears, read: Beet Armyworm, 128-well diet tray assay, read-out: BAW rating.
[7] abbreviates: Cabbage Looper, 128-well diet tray assay, read-out: CL rating.

Like-named read-outs stand apart in the source and are kept apart here.

For the compound `N#Cc1c(F)cccc1NC(=O)c1cc(NC(=O)[C@H]2[C@H](c3cc(Cl)cc(Cl)c3)C2(Cl)Cl)ccc1Cl` (relative stereo) [F298, 2-Chloro-N-(2-cyano-3-fluorophenyl)-5-(trans-2,2-dichloro-3-(3,5-dichlorophenyl)cyclopropane-1-carboxamido)benzamide], the pest or weed control at 50 µg/cm2 in assay [1] (setting [4]) and in assay [2] (setting [5]) was 50 to 100% each time. The “YFM (Biological Results, rating)” value in assay [3] is “A (80-100)”.
Regarding `O=C(Nc1ccc2nccn2c1)c1cc(NC(=O)C2C(c3cc(Cl)cc(Cl)c3)C2(Cl)Cl)ccc1Cl` (stereo not drawn) [F475, 2-Chloro-5-(trans)-2,2-dichloro-3-(3,5-dichlorophenyl)cyclopropane-1-carboxamido)-N-(imidazo[1,2-a]pyridin-6-yl)benzamide], the pest or weed control at 50 µg/cm2 in assay [1] (setting [6]) and in assay [2] (setting [7]) was 50 to 100% in each case. Besides, the YFM rating result in assay [3] is listed as “A (80-100)”.
For `Cc1cc(F)ccc1NC(=O)c1cc(NC(=O)[C@H]2[C@H](c3ccc(Cl)c(Cl)c3)C2(Cl)Cl)ccc1Cl` (relative stereo) [PF46, trans-2-Chloro-5-(2,2-dichloro-3-(3,4-dichlorophenyl)cyclopropane-1-carboxamido)-N-(4-fluoro-2-methylphenyl)benzamide], the pest or weed control at 50 µg/cm2 in assay [1] (setting [6]) and in assay [2] (setting [7]) was 50 to 100% throughout. Besides, in assay [3], the YFM rating result is “A (80-100)”.
As to `O=C(Nc1ccc(F)cc1)c1cc(NC(=O)[C@H]2[C@H](c3cc(Cl)cc(Br)c3)C2(Cl)Cl)ccc1Cl` (relative stereo) [PF37, 5-(trans-3-(3-Bromo-5-chlorophenyl)-2,2-dichlorocyclopropane-1-carboxamido)-2-chloro-N-(4-fluorophenyl)benzamide], the pest or weed control at 50 µg/cm2 in assay [1] (setting [6]) and in assay [2] (setting [7]) was 50 to 100% each time. The YFM rating entry in assay [3] is given as “B (More than 0-Less than 80)”.
For `COc1cc(NC(=O)c2cc(NC(=O)[C@H]3[C@H](c4ccc(F)c(Cl)c4)C3(Cl)Cl)ccc2Cl)c(Br)cn1` (relative stereo) [F549, N-(5-Bromo-2-methoxypyridin-4-yl)-2-chloro-5-(trans-2,2-dichloro-3-(3-chloro-4-fluorophenyl)cyclopropane-1-carboxamido)benzamide], the pest or weed control at 50 µg/cm2 in assay [1] (setting [6]) and in assay [2] (setting [7]) was 50 to 100% in each case. In addition, the YFM rating result in assay [3] is reported as “A (80-100)”.
In the case of `Cc1cc(NC(=O)OC(C)(C)C)ccc1NC(=O)c1cc(NC(=O)[C@H]2[C@H](c3ccc(Cl)c(Cl)c3)C2(Cl)Cl)ccc1Cl` [F277, tert-Butyl (4-(2-chloro-5-((1R,3R)-2,2-dichloro-3-(3,4-dichlorophenyl)cyclopropane-1-carboxamido)benzamido)-3-methylphenyl)carbamate], the pest or weed control at 50 µg/cm2 in assay [1] (setting [4]) and in assay [2] (setting [5]) was 50 to 100% throughout. Moreover, the “YFM (Biological Results, rating)” value in assay [3] was “A (80-100)”.
`O=C(Nc1ccc(F)cc1F)c1cc(NC(=O)[C@H]2[C@H](c3cc(Br)cc(C(F)(F)F)c3)C2(Cl)Cl)ccc1Cl` (relative stereo) [F424, 5-(trans)-(3-(3-Bromo-5-(trifluoromethyl)phenyl)-2,2-dichlorocyclopropane-1-carboxamido)-2-chloro-N-(2,4-difluorophenyl)benzamide]: the pest or weed control at 50 µg/cm2 in assay [1] (setting [6]) and in assay [2] (setting [7]) was 50 to 100% each time. For the same compound, in assay [3], the YFM rating result was “A (80-100)”.
For the compound `CN(C(=O)c1cc(NC(=O)[C@H]2[C@H](c3ccc(Br)c(Cl)c3)C2(Cl)Cl)ccc1Cl)c1ccc(F)cc1` (relative stereo) [F307, 5-(trans-3-(4-Bromo-3-chlorophenyl)-2,2-dichlorocyclopropane-1-carboxamido)-2-chloro-N-(4-fluorophenyl)-N-methylbenzamide], the pest or weed control at 50 µg/cm2 in assay [1] (setting [4]) and in assay [2] (setting [5]) was 50 to 100% throughout. The “YFM (Biological Results, rating)” value in assay [3] is given as “A (80-100)”.
`Nc1cc(F)cc(F)c1NC(=O)c1cc(NC(=O)[C@H]2[C@H](c3cc(Cl)c(Cl)c(Cl)c3)C2(Cl)Cl)ccc1Cl` [F408, N-(2-Amino-4,6-difluorophenyl)-2-chloro-5-((1R,3R)-2,2-dichloro-3-(3,4,5-trichlorophenyl)cyclopropane-1-carboxamido)benzamide]: the pest or weed control at 50 µg/cm2 in assay [1] (setting [6]) and in assay [2] (setting [7]) was 50 to 100% in each case. Moreover, the YFM rating result in assay [3] is “A (80-100)”.
With `CC(C)(C)OC(=O)Nc1cccc(NC(=O)c2cc(NC(=O)[C@H]3[C@H](c4ccc(F)c(Cl)c4)C3(Cl)Cl)ccc2Cl)n1` (relative stereo) [F506, tert-Butyl (6-(2-chloro-5-(trans-2,2-dichloro-3-(3-chloro-4-fluorophenyl)cyclopropane-1-carboxamido)benzamido)pyridin-2-yl)carbamate], the pest or weed control at 50 µg/cm2 in assay [1] (setting [6]) and in assay [2] (setting [7]) was 50 to 100% throughout. Also, the YFM rating result in assay [3] is “A (80-100)”.
`Cc1cc(N)ccc1NC(=O)c1cc(NC(=O)[C@@H]2[C@@H](c3cc(Cl)cc(Cl)c3)C2(Cl)Cl)ccc1Cl` [F284, N-(4-Amino-2-methylphenyl)-2-chloro-5-((1S,3S)-2,2-dichloro-3-(3,5-dichlorophenyl)cyclopropane-1-carboxamido)benzamide]: the pest or weed control at 50 µg/cm2 in assay [1] (setting [4]) and in assay [2] (setting [5]) was 50 to 100% each time. For the same compound, in assay [3], the “YFM (Biological Results, rating)” value is recorded as “A (80-100)”.
`O=C(Nc1ccc(F)cc1F)c1cc(NC(=O)[C@@H]2[C@@H](c3ccc(Cl)c(Br)c3)C2(Cl)Cl)ccc1Cl` [F573, 5-((1S,3S)-3-(3-Bromo-4-chlorophenyl)-2,2-dichlorocyclopropane-1-carboxamido)-2-chloro-N-(2,4-difluorophenyl)benzamide]: the pest or weed control at 50 µg/cm2 in assay [1] (setting [6]) and in assay [2] (setting [7]) was 50 to 100% in each case. Further, in assay [3], the YFM rating result is on record as “A (80-100)”.
With `O=C(Nc1ccc(F)cc1F)c1cc(NC(=O)[C@H]2[C@H](c3ccc(Br)c(Cl)c3)C2(Cl)Cl)ccc1Cl` (relative stereo) [F306, 5-(trans-3-(4-Bromo-3-chlorophenyl)-2,2-dichlorocyclopropane-1-carboxamido)-2-chloro-N-(2,4-difluorophenyl)benzamide], the pest or weed control at 50 µg/cm2 in assay [1] (setting [4]) and in assay [2] (setting [5]) was 50 to 100% in each case. For the same compound, in assay [3], the “YFM (Biological Results, rating)” value is given as “A (80-100)”.
For the compound `O=C(Nc1ccc([S+]([O-])C(F)(F)F)cc1)c1cc(NC(=O)[C@H]2[C@H](c3cc(Cl)cc(Cl)c3)C2(Cl)Cl)ccc1Cl` (relative stereo) [PF20, trans-2-Chloro-5-(2,2-dichloro-3-(3,5-dichlorophenyl)cyclopropane-1-carboxamido)-N-(4-((trifluoromethyl)sulfinyl)phenyl)benzamide], the pest or weed control at 50 µg/cm2 in assay [1] (setting [6]) and in assay [2] (setting [7]) was 50 to 100% in each case. Moreover, in assay [3], the YFM rating entry is given as “A (80-100)”.
Turning to `COc1cc(NC(=O)c2cc(NC(=O)[C@H]3[C@H](c4cc(Cl)cc(Cl)c4)C3(Cl)Cl)ccc2Cl)ccc1C#N` (relative stereo) [F234, 2-Chloro-N-(4-cyano-3-methoxyphenyl)-5-(trans-2,2-dichloro-3-(3,5-dichlorophenyl)cyclopropane-1-carboxamido)benzamide], the pest or weed control at 50 µg/cm2 in assay [1] (setting [4]) and in assay [2] (setting [5]) was 50 to 100% in each case. Moreover, in assay [3], the “YFM (Biological Results, rating)” value is “A (80-100)”.
With `N#Cc1c(Cl)cccc1NC(=O)c1cc(NC(=O)[C@H]2[C@H](c3cc(Cl)cc(Cl)c3)C2(Cl)Cl)ccc1Cl` (relative stereo) [F302, 2-Chloro-N-(3-chloro-2-cyanophenyl)-5-(trans-2,2-dichloro-3-(3,5-dichlorophenyl)cyclopropane-1-carboxamido)benzamide], the pest or weed control at 50 µg/cm2 in assay [1] (setting [4]) and in assay [2] (setting [5]) was 50 to 100% in each case. In addition, the “YFM (Biological Results, rating)” value in assay [3] is reported as “A (80-100)”.
For `C=Cc1cc(Cl)cc([C@H]2[C@H](C(=O)Nc3ccc(Cl)c(C(=O)Nc4ccc(F)c(N)c4F)c3)C2(Cl)Cl)c1` (relative stereo) [F356, N-(3-Amino-2,4-difluorophenyl)-2-chloro-5-(trans-2,2-dichloro-3-(3-chloro-5-vinylphenyl)cyclopropane-1-carboxamido)benzamide], the pest or weed control at 50 µg/cm2 in assay [1] (setting [4]) and in assay [2] (setting [5]) was 50 to 100% in each case. In assay [3], the “YFM (Biological Results, rating)” value is given as “A (80-100)”.
As to `O=C(Nc1ccc(F)cc1F)c1cc(NC(=O)[C@H]2[C@H](c3ccc(Cl)c(C(F)(F)F)c3)C2(Cl)Cl)ccc1Cl` (relative stereo) [F374, 2-Chloro-5-(trans)-(2,2-dichloro-3-(4-chloro-3-(trifluoromethyl)phenyl)cyclopropane-1-carboxamido)-N-(2,4-difluorophenyl)benzamide], the pest or weed control at 50 µg/cm2 in assay [1] (setting [6]) and in assay [2] (setting [7]) was 50 to 100% each time. Besides, the YFM rating result in assay [3] is given as “A (80-100)”.
As for `COc1cc(F)ccc1NC(=O)c1cc(NC(=O)[C@H]2[C@H](c3cc(Cl)cc(Cl)c3)C2(Cl)Cl)ccc1Cl` (relative stereo) [PF58, trans-2-Chloro-5-(2,2-dichloro-3-(3,5-dichlorophenyl)cyclopropane-1-carboxamido)-N-(4-fluoro-2-methoxyphenyl)benzamide], the pest or weed control at 50 µg/cm2 in assay [1] (setting [6]) and in assay [2] (setting [7]) was 50 to 100% in each case. Also, the YFM rating entry in assay [3] is reported as “A (80-100)”.
